This note sets out measurements from patent US6403299B1, “DEAH-box proteins” (Aventis Research & Technologies GmbH & Co. KG, priority 1995, dated 2002).

Common to all, as to format: cell-based, mouse
Assay [1] deals with A20.2J cells. In words: Proliferation test 1 (cell counting, Eosin staining), A20.2J cells. The protocol: A20.2J is a subline of the mouse B-cell lymphoma A20 (ATCC TIB-208) and described as a fusion line in the ATCC for the cell line LS 102.9 (ATCC HB-97). […] The cells were easy to culture as a nonadherent-growing cell line. 5×10^5 cells were incubated in 5 ml of Iscove medium in 6-well plates (Greiner) for 48 hours at 37° C. and 10% CO2. One well was set up as a positive reference value: for A20.2J: cells in Iscove medium Test substances in various concentrations were pipetted into the cells in the remaining wells. After the incubation time, the cells were resuspended in the well, and 100 μl of cell suspension were taken and diluted in 1% strength Eosin solution (1 g of Eosin yellowish from Riedel de Häen dissolved in 100 ml of sterile isotonic saline solution). The cells were counted in a Neubauer counting chamber and the fraction of dead cells (stained by Eosin) determined. The substance-induced alteration of proliferation was calculated relative to the respective positive control.

Assay [2] deals with A20R cells. The assay is described as follows: Proliferation test 1 (cell counting, Eosin staining), A20R cells. The protocol: Every 2nd or 3rd day, the cells were passaged in fresh medium to which the same concentration of A77 1726 was added. After culturing for 5 days, growth of the cells and a low dying-off rate (maximum 30% dead cells) was detectable, so the concentration of A77 1726 was increased stepwise. If the proliferation of the cells stagnated, the concentration of the last passage was used. […] 5×10^5 cells were incubated in 5 ml of Iscove medium in 6-well plates (Greiner) for 48 hours at 37° C. and 10% CO2. One well was set up as a positive reference value: for […]: cells in Iscove medium+100 μM A77 1726 Test substances in various concentrations were pipetted into the cells in the remaining wells. After the incubation time, the cells were resuspended in the well, and 100 μl of cell suspension were taken and diluted in 1% strength Eosin solution (1 g of Eosin yellowish from Riedel de Häen dissolved in 100 ml of sterile isotonic saline solution). The cells were counted in a Neubauer counting chamber and the fraction of dead cells (stained by Eosin) determined. The substance-induced alteration of proliferation was calculated relative to the respective positive control.

Assay [3] concerns A20R cells. The assay is described as follows: Proliferation test 2 (3H-thymidine incorporation), A20R cells. Here is the method: (§1) 4×10^3 cells were pipetted into a volume of 100 μl of Iscove medium in 96-well round-bottom microtiter plates (Nunc). Test substances were applied in twice the concentration starting from the desired test concentration and 100 μl of this solution was pipetted into the cells. The plates were incubated for 48 hours at 37° C. and 10% CO2. The proliferation was determined by radiolabeling the DNA of dividing cells. To do this, after the incubation time 25 μl of ^3H-thymidine (10 μCi/ml; specific activity 29 Ci/mmol; Amersham) was added to each well and the mixture was incubated for a further 16 hours. To evaluate the test, the plates were harvested on glass fiber filters (Pharmacia) by means of a cell harvester (Skatron), unincorporated ^3H-thymidine being collected in separate waste flasks, and only cellular, DNA-bound radioactivity being measured. The filters were heat-sealed in plastic bags and after addition of 10 ml of scintillator (Pharmacia) sealed in counting cassettes for measurement. Measurement was carried out in a beta-counter (beta-plate system 1206 from Wallac). As indicated under Test 1, the alteration in proliferation of the test substances was calculated against the respective positive controls.
(§2) Antiproliferative substances known from the literature were tested at different concentrations (as described in proliferation test 2) for their antiproliferative properties on A20R cells and A20.2J.
(§3) The function of MDR proteins as secretory pumps can be inhibited by calcium channel blockers, which leads to an accumulation of the substance in the cell. Calcium channel blockers known from the literature and also MDR-associated substances were therefore added to both cell lines in order to check whether the resistant line overexpressed MDR proteins.
(§4) The same test mixture was chosen in order to check whether A77 1726 is an MDR-transported molecule. Numbers are % inhibition of proliferation.

Assay [4] relates to A20.2J cells. In words: Proliferation test 2 (3H-thymidine incorporation), A20.2J cells. The protocol:
as §1, §2, §3, §4

Read-outs that look alike come from different tables or passages of the source.

As to `Cc1c(-c2ccc(-c3ccccc3F)cc2)nc2ccc(F)cc2c1C(=O)[O-].[Na+]` [Brequinar Na^+ salt, brequinar], the IC50 in the assay on A20.2J cells [1] (proliferation test 1, brequinar, read-out: IC50 value of A20.2J) is 0.2 µM; in the assay with A20R cells [2] (proliferation test 1, brequinar), 50 to 75 µM. The “cross-resistance of A20R cells (growth behavior) compared with A20.2J” value with A20R cells [2] was “cross-resistance”.

For the molecule `CN(Cc1cnc2nc(N)nc(N)c2n1)c1ccc(C(=O)N[C@@H](CCC(=O)O)C(=O)O)cc1` [Methotrexate], the inhibition at 0.15 µM in the assay with A20R cells [3] (Mus musculus; 0.15 μM) came out at 65.2%; with A20.2J cells [4] (Mus musculus, A20/2J; 0.15 μM), 75.9%.

On to `COc1c(C)c2c(c(O)c1C/C=C(\C)CCC(=O)O)C(=O)OC2` [Mycophenolic acid], for which the inhibition at 0.15 µM came out at 76.8% with A20R cells [3] (Mus musculus; 0.15 μM) and 89.8% with A20.2J cells [4] (Mus musculus, A20/2J; 0.15 μM).

On to `Cc1oncc1C(=O)Nc1ccc(C(F)(F)F)cc1` [leflunomide], for which the ED50 in the assay with A20.2J cells [1] (murine A20.2J cells) is recorded as 4 μ; in the assay on A20R cells [2] (murine A20.2J cells resistant to high levels of leflunomide), 130 μ. Further, the EC50 came out at 4 µM with A20.2J cells [1] (original cell line A20.2J, read-out: ED50 (the source's name)) and 130 µM with A20R cells [2] (resistant subline A20R, read-out: ED50 (the source's name)). Further, the “times higher leflunomide concentrations tolerated by A20R than by A20.2J” value in the assay with A20R cells [2] (A20R versus A20.2J) is 30-40 times.

`C/C(O)=C(\C#N)C(=O)Nc1ccc(C(F)(F)F)cc1` [A77 1726]: the IC50 with A20.2J cells [1] (Mus musculus, A20/2J, proliferation test 1, A77 1726 analogs, read-out: IC50 value of A20.2J) was 2 to 3 µM; with A20.2J cells [1] (Mus musculus, read-out: 50% inhibition of the proliferation of the cells, A20.2J), 2 µM; in the assay on A20R cells [2] (Mus musculus, proliferation test 1, A77 1726 analogs), 130 µM. Also, the “% inhibition of proliferation” value with A20R cells [3] (A20R + 62.5 μM A77 1726, verapamil 0 nM) stood at 10.3%; in the assay with A20.2J cells [4] (A20.2J + 1.6 μM A77 1726, verapamil 0 nM), 16.4%. Besides, in the assay on A20R cells [3] (A20.2J and A20R cells, with verapamil 0-400 nM), the “transport by MDR proteins” value is listed as “not transported by MDR proteins”.

Regarding `COc1cccc2c1C(=O)c1c(O)c3c(c(O)c1C2=O)C[C@@](O)(C(C)=O)C[C@@H]3O[C@H]1C[C@H](N)[C@H](O)[C@H](C)O1` [daunorubicin], the inhibition at 0.3 µM worked out at 6.8% in the assay with A20R cells [3] (Mus musculus, read-out: % inhibition of proliferation) and 10.7% in the assay with A20.2J cells [4] (Mus musculus, A20/2J, read-out: % inhibition of proliferation).

For the molecule `N.N.[Cl][Pt][Cl]` [Cisplatin], in the assay with A20R cells [3] (10 μM), the “% inhibition of A20R” value was found to be 91.1%. Further, in the assay with A20.2J cells [4] (10 μM), the “% inhibition of A20.2J” value stood at 44.7%.

As for Cyclosporin A, in the assay on A20R cells [3] (0.25 μM), the “% inhibition of A20R” value came to 77.5%. In the assay with A20.2J cells [4] (0.25 μM), the “% inhibition of A20.2J” value was found to be 69.9%.

As to `COc1cccc2c1C(=O)c1c(O)c3c(c(O)c1C2=O)C[C@@](O)(C(=O)CO)C[C@@H]3O[C@H]1C[C@H](N)[C@H](O)[C@H](C)O1` [doxorubicin], the inhibition at 0.3 µM turned out to be 9.1% in the assay with A20R cells [3] (Mus musculus; read-out: % inhibition of proliferation) and 2.7% in the assay with A20.2J cells [4] (Mus musculus, A20/2J; read-out: % inhibition of proliferation).
